One assay deals with T1, LOX (Glycine max, UniProt P08170).
T1 sequence (P08170 1-839): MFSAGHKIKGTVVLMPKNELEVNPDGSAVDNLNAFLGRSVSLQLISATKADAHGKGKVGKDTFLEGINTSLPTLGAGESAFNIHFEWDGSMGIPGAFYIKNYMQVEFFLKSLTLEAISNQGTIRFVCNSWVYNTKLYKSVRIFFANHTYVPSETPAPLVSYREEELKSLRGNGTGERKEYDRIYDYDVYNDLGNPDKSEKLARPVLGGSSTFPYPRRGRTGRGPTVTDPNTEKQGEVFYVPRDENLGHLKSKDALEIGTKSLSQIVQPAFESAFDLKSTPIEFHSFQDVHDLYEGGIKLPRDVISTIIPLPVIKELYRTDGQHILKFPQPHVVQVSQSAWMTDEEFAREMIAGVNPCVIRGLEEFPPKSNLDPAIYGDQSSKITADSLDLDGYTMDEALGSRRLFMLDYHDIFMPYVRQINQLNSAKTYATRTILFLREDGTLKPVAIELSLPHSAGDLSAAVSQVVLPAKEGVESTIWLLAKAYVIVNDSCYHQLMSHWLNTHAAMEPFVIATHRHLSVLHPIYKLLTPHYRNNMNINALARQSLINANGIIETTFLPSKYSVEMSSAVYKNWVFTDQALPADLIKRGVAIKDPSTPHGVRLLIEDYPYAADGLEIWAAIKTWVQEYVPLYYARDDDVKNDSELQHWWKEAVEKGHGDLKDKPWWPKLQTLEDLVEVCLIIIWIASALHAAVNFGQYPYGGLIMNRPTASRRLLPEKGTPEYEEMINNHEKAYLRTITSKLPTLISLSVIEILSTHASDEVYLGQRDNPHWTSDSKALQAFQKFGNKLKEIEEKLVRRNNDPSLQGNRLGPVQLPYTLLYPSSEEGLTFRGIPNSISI
Kind of assay: Lipoxygenase assay. It is filed as biochemical. Conditions: mean ± SEM, triplicate.

A further assay addresses BChE (Homo sapiens, UniProt P06276). Conditions: mean ± SEM, triplicate.
Another assay deals with urease (Canavalia ensiformis, UniProt P07374). Particulars: mean ± SEM, triplicate; for IC50: read-out: urease inhibition, IC50.
In a further assay the target is AChE (Homo sapiens, UniProt P22303). Particulars: for AChE inhibition, inhibition (%) at 0.5 mM / IC50: mean ± SEM, triplicate; for IC50: read-out: AChE inhibition, IC50.
The target in a further assay is α-glucosidase (Saccharomyces cerevisiae, UniProt P53341). Kind of assay: α-Glucosidase assay. It is filed as biochemical. Particulars: for α-glucosidase inhibition, inhibition (%) at 0.5 mM / IC50: mean ± SEM, triplicate; for IC50: read-out: α-glucosidase inhibition, IC50.

“Also recorded” adds a separate entry of the source.

Chain of urease (P07374 whole entry, looked up): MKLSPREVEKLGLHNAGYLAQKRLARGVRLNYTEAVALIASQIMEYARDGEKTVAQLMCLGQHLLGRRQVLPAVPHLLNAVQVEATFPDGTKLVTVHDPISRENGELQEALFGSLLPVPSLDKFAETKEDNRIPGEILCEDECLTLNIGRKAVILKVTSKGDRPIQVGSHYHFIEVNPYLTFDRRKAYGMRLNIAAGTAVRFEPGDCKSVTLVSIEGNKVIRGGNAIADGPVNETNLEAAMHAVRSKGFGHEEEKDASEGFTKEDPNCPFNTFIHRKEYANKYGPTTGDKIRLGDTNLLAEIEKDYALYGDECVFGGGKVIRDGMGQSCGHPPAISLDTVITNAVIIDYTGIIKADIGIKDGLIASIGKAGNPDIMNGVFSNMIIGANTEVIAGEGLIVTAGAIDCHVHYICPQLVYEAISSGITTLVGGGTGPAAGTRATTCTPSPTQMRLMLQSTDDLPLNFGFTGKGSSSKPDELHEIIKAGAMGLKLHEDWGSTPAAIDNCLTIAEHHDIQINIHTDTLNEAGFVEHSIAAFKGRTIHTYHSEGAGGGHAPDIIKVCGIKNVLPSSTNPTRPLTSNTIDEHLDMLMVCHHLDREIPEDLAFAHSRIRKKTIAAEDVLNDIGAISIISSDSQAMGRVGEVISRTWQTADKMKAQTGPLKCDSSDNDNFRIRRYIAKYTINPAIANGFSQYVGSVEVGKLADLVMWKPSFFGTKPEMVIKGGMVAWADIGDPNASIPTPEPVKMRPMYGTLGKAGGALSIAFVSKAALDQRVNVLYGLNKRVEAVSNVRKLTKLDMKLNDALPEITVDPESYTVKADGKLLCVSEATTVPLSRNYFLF
Chain of BChE (P06276 29-602, species assumed): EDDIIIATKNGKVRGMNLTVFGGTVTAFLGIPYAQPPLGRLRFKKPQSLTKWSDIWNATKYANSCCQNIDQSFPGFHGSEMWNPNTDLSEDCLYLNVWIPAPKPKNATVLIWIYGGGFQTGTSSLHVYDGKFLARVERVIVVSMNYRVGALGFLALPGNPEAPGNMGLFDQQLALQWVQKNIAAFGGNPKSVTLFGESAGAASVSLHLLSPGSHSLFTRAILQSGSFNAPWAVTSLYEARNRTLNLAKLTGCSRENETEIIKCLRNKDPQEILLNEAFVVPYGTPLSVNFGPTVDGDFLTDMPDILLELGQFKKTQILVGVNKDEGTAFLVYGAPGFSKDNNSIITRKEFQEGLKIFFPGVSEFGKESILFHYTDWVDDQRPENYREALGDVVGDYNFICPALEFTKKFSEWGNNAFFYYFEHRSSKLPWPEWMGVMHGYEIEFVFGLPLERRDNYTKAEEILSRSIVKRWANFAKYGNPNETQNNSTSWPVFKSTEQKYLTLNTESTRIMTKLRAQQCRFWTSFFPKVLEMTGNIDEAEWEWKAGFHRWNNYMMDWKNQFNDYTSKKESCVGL
Chain of AChE (P22303 32-614): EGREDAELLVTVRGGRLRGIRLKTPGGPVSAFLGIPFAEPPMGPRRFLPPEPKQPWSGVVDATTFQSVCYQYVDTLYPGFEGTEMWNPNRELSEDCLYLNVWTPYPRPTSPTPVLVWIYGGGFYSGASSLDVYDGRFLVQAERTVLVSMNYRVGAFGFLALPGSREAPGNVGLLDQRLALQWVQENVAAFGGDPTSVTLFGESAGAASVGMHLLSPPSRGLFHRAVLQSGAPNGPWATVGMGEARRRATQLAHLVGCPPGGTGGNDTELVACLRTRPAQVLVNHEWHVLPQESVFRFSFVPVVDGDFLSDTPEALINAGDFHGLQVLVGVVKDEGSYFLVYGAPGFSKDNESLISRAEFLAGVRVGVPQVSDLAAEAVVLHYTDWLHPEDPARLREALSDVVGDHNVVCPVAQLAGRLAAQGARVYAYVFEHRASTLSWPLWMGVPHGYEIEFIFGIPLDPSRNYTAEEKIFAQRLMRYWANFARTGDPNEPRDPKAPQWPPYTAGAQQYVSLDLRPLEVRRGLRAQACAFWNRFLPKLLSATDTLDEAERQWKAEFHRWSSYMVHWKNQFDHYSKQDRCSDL
Chain of α-glucosidase (P53341 whole entry): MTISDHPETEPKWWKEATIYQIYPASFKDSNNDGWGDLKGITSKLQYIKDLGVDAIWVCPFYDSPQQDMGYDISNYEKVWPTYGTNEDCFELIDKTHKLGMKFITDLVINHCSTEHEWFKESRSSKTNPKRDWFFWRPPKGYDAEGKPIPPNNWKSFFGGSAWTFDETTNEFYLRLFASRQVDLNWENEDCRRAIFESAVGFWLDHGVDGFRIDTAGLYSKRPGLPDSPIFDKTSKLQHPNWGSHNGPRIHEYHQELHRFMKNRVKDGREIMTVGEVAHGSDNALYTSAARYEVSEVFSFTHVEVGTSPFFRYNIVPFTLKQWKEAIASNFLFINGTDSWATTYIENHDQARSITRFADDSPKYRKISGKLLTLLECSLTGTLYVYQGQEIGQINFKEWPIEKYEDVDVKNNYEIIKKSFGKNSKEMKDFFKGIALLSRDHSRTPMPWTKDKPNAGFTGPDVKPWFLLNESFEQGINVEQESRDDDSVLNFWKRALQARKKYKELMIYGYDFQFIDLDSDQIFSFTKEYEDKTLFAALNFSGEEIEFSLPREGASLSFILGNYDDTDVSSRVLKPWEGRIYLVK

As usually defined, the IC50 is the concentration at which inhibition is half-maximal. In the case of `Cc1ccc(S(=O)(=O)N2CCC(c3nnc(SCC(=O)Nc4c(C)cccc4C)n3C)CC2)cc1` [Compound 12l, 1-(4-toluenesulfonyl)-4-{3-[N-(2,6-dimethylphenyl)-2-ethanamoylthio]-4-methyl-4H-1,2,4-triazol-5-yl} piperidine], at LOX, the “LOX inhibition, inhibition (%) at 0.25 mM” value was 45.29 ± 0.56%. The “BChE inhibition, inhibition (%) at 0.5 mM” value on BChE is 41.87 ± 0.63%. Also, the “urease inhibition, inhibition (%) at 0.25 mM” value on urease came to 46.19 ± 1.76%. Moreover, on AChE, the “AChE inhibition, inhibition (%) at 0.5 mM” value came out at 62.25 ± 0.86% and the IC50 was determined as 287.7 ± 0.63 µM. On α-glucosidase, the “α-glucosidase inhibition, inhibition (%) at 0.5 mM” value stood at 53.67 ± 1.67% and the IC50 worked out at 463.3 ± 1.36 µM.

As for `Cc1ccc(S(=O)(=O)N2CCC(c3nnc(SCC(=O)Nc4cc(C)cc(C)c4)n3C)CC2)cc1` [Compound 12m, 1-(4-toluenesulfonyl)-4-{3-[N-(3,5-dimethylphenyl)-2-ethanamoylthio]-4-methyl-4H-1,2,4-triazol-5-yl} piperidine], the “LOX inhibition, inhibition (%) at 0.25 mM” value on LOX is 37.45 ± 0.37%. Also, at BChE, the “BChE inhibition, inhibition (%) at 0.5 mM” value is reported as 91.25 ± 0.45%. Besides, the IC50 at BChE (read-out: BChE inhibition, IC50) came out at 0.038 µM. Further, on urease, the “urease inhibition, inhibition (%) at 0.25 mM” value was 98.65 ± 1.67% and the IC50 came out at 14.3 ± 1.27 µM. Also, at AChE, the “activity against AChE enzyme (in words)” value is “excellent activity”; the “AChE inhibition, inhibition (%) at 0.5 mM” value is recorded as 92.73 ± 0.87%; the IC50 was 0.42 ± 0.67 µM. At α-glucosidase, the “α-glucosidase inhibition, inhibition (%) at 0.5 mM” value came out at 87.21 ± 1.46% and the IC50 was determined as 142.7 ± 1.23 µM.

On to `CCc1cccc(C)c1NC(=O)CSc1nnc(C2CCN(S(=O)(=O)c3ccc(C)cc3)CC2)n1C` [Compound 12n, 1-(4-toluenesulfonyl)-4-{3-[N-(2-ethyl-6-methylphenyl)-2-ethanamoylthio]-4-methyl-4H-1,2,4-triazol-5-yl} piperidine], for which the “LOX inhibition, inhibition (%) at 0.25 mM” value on LOX is recorded as 35.65 ± 0.49%. For the same compound, the “BChE inhibition, inhibition (%) at 0.5 mM” value on BChE came out at 36.24 ± 0.59%. In addition, at urease, the “urease inhibition, inhibition (%) at 0.25 mM” value is reported as 32.85 ± 1.39%. For the same compound, at AChE, the “AChE inhibition, inhibition (%) at 0.5 mM” value is 61.53 ± 0.65% and the IC50 is 328.1 ± 0.45 µM. Besides, on α-glucosidase, the “activity against α-glucosidase enzyme (in words)” value is listed as “excellent activity; also recorded: most active compound”; the “α-glucosidase inhibition, inhibition (%) at 0.5 mM” value was determined as 92.65 ± 1.64%; the IC50 was determined as 29.4 ± 1.32 µM.

On to `Cc1ccc(S(=O)(=O)N2CCC(c3nnc(SCC(=O)Nc4c(C)cccc4[N+](=O)[O-])n3C)CC2)cc1` [Compound 12o, 1-(4-toluenesulfonyl)-4-{3-[N-(2-methyl-6-nitrophenyl)-2-ethanamoylthio]-4-methyl-4H-1,2,4-triazol-5-yl} piperidine], for which the “LOX inhibition, inhibition (%) at 0.25 mM” value at LOX was 64.28 ± 0.73%. Besides, the concentration for half-maximal inhibition (IC50) at LOX (read-out: LOX inhibition, IC50) stood at 93.81 ± 0.34 µM. Further, the “BChE inhibition, inhibition (%) at 0.5 mM” value at BChE is listed as 39.65 ± 0.42%. Moreover, on urease, the “urease inhibition, inhibition (%) at 0.25 mM” value came to 56.35 ± 1.67% and the half-inhibitory concentration (IC50) worked out at 241.8 ± 0.42 µM. On AChE, the “AChE inhibition, inhibition (%) at 0.5 mM” value was 81.53 ± 0.96% and the IC50 was found to be 129.6 ± 0.73 µM. At α-glucosidase, the “α-glucosidase inhibition, inhibition (%) at 0.5 mM” value turned out to be 72.23 ± 1.51% and the IC50 stood at 285.6 ± 1.23 µM.
